Results as given in patent US11970494B2, “6-heteroaryloxy benzimidazoles and azabenzimidazoles as JAK2 inhibitors” (Ajax Therapeutics, Inc., priority 2021, dated 2024).

Test: Caco2 Permeability Assay
Assay type: in vitro ADME
Details: human
Protocol: Preparation of Caco-2 Cells: 50 μL and 25 mL of cell culture medium are added to each well of a Transwell® insert and reservoir, respectively. Then, the HTS Transwell® plates are incubated at 37° C., 5% CO2 for 1 hour before cell seeding. Caco-2 cell cells are diluted to 6.86×10^5 cells/mL with culture medium, and 50 μL of cell suspension are dispensed into the filter well of the 96-well HTS Transwell® plate. Cells are cultivated for 14-18 days in a cell culture incubator at 37° C., 5% CO2, 95% relative humidity. Cell culture medium is replaced every other day, beginning no later than 24 hours after initial plating.
Preparation of Stock Solutions: 10 mM stock solutions of test compounds are prepared in DMSO. The stock solutions of positive controls are prepared in DMSO at the concentration of 10 mM. Digoxin and propranolol are used as control compounds in this assay.
Assessment of Cell Monolayer Integrity: Medium is removed from the reservoir and each Transwell® insert and is replaced with prewarmed fresh culture medium. Transepithelial electrical resistance (TEER) across the monolayer is measured using Millicell Epithelial Volt-Ohm measuring system (Millipore, USA). The Plate is returned to the incubator once the measurement is done. The TEER value is calculated according to the following equation: TEER measurement (ohms)×Area of membrane (cm^2)=TEER value (ohm⋅cm^2). A TEER value greater than 230 ohm⋅cm^2 indicates a well-qualified Caco-2 monolayer.
Assay Procedure: The Caco-2 plate is removed from the incubator and washed twice with pre-warmed HBSS (10 mM HEPES, pH 7.4), and then incubated at 37° C. for 30 minutes. The stock solutions of control compounds are diluted in DMSO to get 1 mM solutions and then diluted with HBSS (10 mM HEPES, pH 7.4) to get 5 μM working solutions. The stock solutions of the test compounds are diluted in DMSO to get 1 mM solutions and then diluted with HBSS (10 mM HEPES and 4% BSA, pH 7.4) to get 5 μM working solutions. The final concentration of DMSO in the incubation system is 0.5%. To determine the rate of drug transport in the apical to basolateral direction. 75 μL of 5 μM working solutions of test compounds are added to the Transwell® insert (apical compartment) and the wells in the receiver plate (basolateral compartment) are filled with 235 μL of HBSS (10 mM HEPES and 4% BSA, pH 7.4). To determine the rate of drug transport in the basolateral to apical direction, 235 μL of 5 μM working solutions of test compounds are added to the receiver plate wells (basolateral compartment) and then the Transwell® inserts (apical compartment) are filled with 75 μL of HBSS (10 mM HEPES and 4% BSA, pH 7.4). Time 0 samples are prepared by transferring 50 μL of 5 μM working solution to wells of the 96-deepwell plate, followed by the addition of 200 μL cold methanol containing appropriate internal standards (IS). The plates are incubated at 37° C. for 2 hours. At the end of the incubation, 50 μL samples from donor sides (apical compartment for Ap→*Bl flux, and basolateral compartment for Bl→Ap) and receiver sides (basolateral compartment for Ap→Bl flux, and apical compartment for Bl→Ap) are transferred to wells of a new 96-well plate, followed by the addition of 4 volume of cold acetonitrile or methanol containing appropriate internal standards (IS). Samples are vortexed for 5 minutes and then centrifuged at 3,220 g for 40 minutes. An aliquot of 100 μL of the supernatant is mixed with an appropriate volume of ultra-pure water before LC-MS/MS analysis. To determine the Lucifer Yellow leakage after 2 hour transport period, stock solution of Lucifer yellow is prepared in ultra-pure water and diluted with HBSS (10 mM HEPES, pH 7.4) to reach the final concentration of 100 μM. 100 μL of the Lucifer yellow solution is added to each Transwell® insert (apical compartment), followed by filling the wells in the receiver plate (basolateral compartment) with 300 μL of HBSS (10 mM HEPES, pH 7.4). […]

efflux ratio at 2 h, 5 μM (pH 7.4, Caco-2, 5 μM, read-out: Efflux Ratio (ER)): 2 to 5
Papp A→B at 2 h, 5 μM (pH 7.4, Caco-2, apical to basolateral, 5 μM): 3 ×10⁻⁶ cm/s
Compound: Cn1c(Nc2cc3n(n2)CCCC3(F)F)nc2ncc(Oc3ccnc(NC(=O)N4CCC4)c3)c(C#N)c21 [Example I-30]
